# Values joined by “and” are separate entries in the source; they are usually repeats but may differ in a detail not shown here. Equal values may be shown once.
# Legend:
# [1] = test system: Phakopsora pachyrhizi; experiment: Phakopsora pachyrhizi / soybean / leaf disc preventative (Asian soybean rust); assay type: in vivo; settings: foliar, soybean leaf disks, compared to untreated control
# Procedure: Leaf disks or leaf segments of various plant species are cut from plants grown in a greenhouse. The cut leaf disks or segments are placed in multiwell plates (24-well format) onto water agar. The leaf disks are sprayed with a test solution before (preventative) or after (curative) inoculation. Compounds to be tested are prepared as DMSO solutions (max. 10 mg/ml) which are diluted to the appropriate concentration with 0.025% Tween20 just before spraying. The inoculated leaf disks or segments are incubated under defined conditions (temperature, relative humidity, light, etc.) according to the respective test system. A single evaluation of disease level is carried out 3 to 14 days after inoculation, depending on the pathosystem. Percent disease control relative to the untreated check leaf disks or segments is then calculated. Soybean leaf disks are placed on water agar in multiwell plates (24-well format) and sprayed with the formulated test compound diluted in water. One day after application leaf discs are inoculated by spraying a spore suspension on the lower leaf surface. After an incubation period in a climate cabinet of 24-36 hours in darkness at 20° C., and 75% rh leaf disc are kept at 20° C. with 12 h light/day and 75% rh. The activity of a compound is assessed as percent disease control compared to untreated when an appropriate level of disease damage appears in untreated check leaf disks (12-14 days after application).
# [2] = test system: Puccinia recondita f. sp. tritici; experiment: Puccinia recondita f. sp. tritici / wheat / leaf disc preventative (brown rust); assay type: in vivo; settings: foliar, wheat leaf segments cv. Kanzler, preventative (inoculated 1 day after application), compared to untreated control
# Procedure: Leaf disks or leaf segments of various plant species are cut from plants grown in a greenhouse. The cut leaf disks or segments are placed in multiwell plates (24-well format) onto water agar. The leaf disks are sprayed with a test solution before (preventative) or after (curative) inoculation. Compounds to be tested are prepared as DMSO solutions (max. 10 mg/ml) which are diluted to the appropriate concentration with 0.025% Tween20 just before spraying. The inoculated leaf disks or segments are incubated under defined conditions (temperature, relative humidity, light, etc.) according to the respective test system. A single evaluation of disease level is carried out 3 to 14 days after inoculation, depending on the pathosystem. Percent disease control relative to the untreated check leaf disks or segments is then calculated. Wheat leaf segments cv. Kanzler are placed on agar in multiwell plates (24-well format) and sprayed with the formulated test compound diluted in water. The leaf disks are inoculated with a spore suspension of the fungus 1 day after application. The inoculated leaf segments are incubated at 19° C. and 75% rh under a light regime of 12 h light/12 h darkness in a climate cabinet and the activity of a compound is assessed as percent disease control compared to untreated when an appropriate level of disease damage appears in untreated check leaf segments (7-9 days after application).
# [3] = test system: Glomerella lagenarium (Colletotrichum lagenarium); experiment: Glomerella lagenarium (Colletotrichum lagenarium) liquid culture / cucumber / preventative (anthracnose); assay type: cell-based; settings: Colletotrichum orbiculare, liquid culture (PDB), growth inhibition measured photometrically 3-4 days after application, compared to untreated control
# Procedure: […] fragments or conidia suspensions of a fungus prepared either freshly from liquid cultures of the fungus or from cryogenic storage, are directly mixed into nutrient broth. DMSO solutions of the test compound (max. 10 mg/ml) are diluted with 0.025% Tween20 by a factor of 50 and 10 μl of this solution is pipetted into a microtiter plate (96-well format). The nutrient broth containing the fungal spores/mycelia fragments is then added to give an end concentration of the tested compound. The test plates are incubated in the dark at 24° C., and 96% relative humidity. The inhibition of fungal growth is determined photometrically after 2 to 7 days, depending on the pathosystem, and percent antifungal activity relative to the untreated check is calculated. Conidia of the fungus from cryogenic storage are directly mixed into nutrient broth (PDB potato dextrose broth). Alter placing a (DMSO) solution of test compound into a microtiter plate (96-well format), the nutrient broth containing the fungal spores is added. The test plates are incubated at 24° C., and the inhibition of growth is measured photometrically 3-4 days after application.
# [4] = test system: Puccinia recondita f. sp. tritici; experiment: Puccinia recondita f. sp. tritici / wheat / leaf disc curative (brown rust); assay type: in vivo; settings: foliar, 24 h, wheat leaf segments cv. Kanzler, curative (applied 1 day after inoculation), compared to untreated control, read-out: control of Puccinia recondita f. sp. tritic
# Procedure: Leaf disks or leaf segments of various plant species are cut from plants grown in a greenhouse. The cut leaf disks or segments are placed in multiwell plates (24-well format) onto water agar. The leaf disks are sprayed with a test solution before (preventative) or after (curative) inoculation. Compounds to be tested are prepared as DMSO solutions (max. 10 mg/ml) which are diluted to the appropriate concentration with 0.025% Tween20 just before spraying. The inoculated leaf disks or segments are incubated under defined conditions (temperature, relative humidity, light, etc.) according to the respective test system. A single evaluation of disease level is carried out 3 to 14 days after inoculation, depending on the pathosystem. Percent disease control relative to the untreated check leaf disks or segments is then calculated. Wheat leaf segments cv. Kanzler are placed on agar in multiwell plates (24-well format). The leaf segments are inoculated with a spore suspension of the fungus. Plates are stored in darkness at 19° C., and 75% rh. The formulated test compound diluted in water is applied 1 day after inoculation. The leaf segments are incubated at 19° C., and 75% rh under a light regime of 12 h light/12 h darkness in a climate cabinet and the activity of a compound is assessed as percent disease control compared to untreated when an appropriate level of disease damage appears in untreated check leaf segments (6-8 days after application).
structure (smiles),measurement,setting,value
"CN(C)N(CC(=O)NC(C)(C)C)C(=O)c1ccc(-c2noc(C(F)(F)F)n2)cc1 [Compound 1.1, N-tert-butyl-2-[dimethylamino-[4-[5-(trifluoromethyl)-1,2,4-oxadiazol-3-yl]benzoyl]amino]-acetamide]",pest or weed control at 200 ppm,[1],≥ 80%
same,pest or weed control at 200 ppm,[2],≥ 80%
same,inhibition of growth at 20 ppm,[3],≥ 80%
same,pest or weed control at 200 ppm,[4],≥ 80%
"O=C(NN1CCOC1=O)c1ccc(-c2noc(C(F)(F)F)n2)cc1F [Compound 1.3, 2-fluoro-N-(2-oxooxazolidin-3-yl)-4-[5-(trifluoromethyl)-1,2,4-oxadiazol-3-yl]benzamide]",pest or weed control at 200 ppm,[1],≥ 80%
same,melting point,,186 to 189 °C and 186.8 to 188.8 °C
same,pest or weed control at 200 ppm,[2],≥ 80%
same,inhibition of growth at 20 ppm,[3],≥ 80%
same,pest or weed control at 200 ppm,[4],≥ 80%
"O=C(NN1CCOCC1)c1ccc(-c2noc(C(F)(F)F)n2)cc1F [Compound 1.15, 2-fluoro-N-morpholino-4-[5-(trifluoromethyl)-1,2,4-oxadiazol-3-yl]benzamide]",pest or weed control at 200 ppm,[1],≥ 80%
same,melting point,,140 to 160 °C
same,pest or weed control at 200 ppm,[2],≥ 80%
same,inhibition of growth at 20 ppm,[3],≥ 80%
same,pest or weed control at 200 ppm,[4],≥ 80%
"O=C(NN1CCOC1=O)c1ccc(-c2noc(C(F)(F)F)n2)cc1 [Compound 1.19, N-(2-oxooxazolidin-3-yl)-4-[5-(trifluoromethyl)-1,2,4-oxadiazol-3-yl]benzamide]",pest or weed control at 200 ppm,[1],≥ 80%
same,melting point,,196 to 200 °C
same,pest or weed control at 200 ppm,[2],≥ 80%
same,inhibition of growth at 20 ppm,[3],≥ 80%
same,pest or weed control at 200 ppm,[4],≥ 80%
"CC(C)OCC1CN(NC(=O)c2ccc(-c3noc(C(F)(F)F)n3)cc2)C(=O)O1 (stereo not drawn) [Compound 1.20, N-[5-(isopropoxymethyl)-2-oxo-oxazolidin-3-yl]-4-[5-(trifluoromethyl)-1,2,4-oxadiazol-3-yl]benzamide]",pest or weed control at 200 ppm,[1],≥ 80%
same,melting point,,192 to 197 °C
same,inhibition of growth at 20 ppm,[3],≥ 80%
"O=C(Cc1ccc(-c2noc(C(F)(F)F)n2)cc1)NN1CCOC1=O [Compound 1.21, N-(2-oxooxazolidin-3-yl)-2-[4-[5-(trifluoromethyl)-1,2,4-oxadiazol-3-yl]phenyl]acetamide]",pest or weed control at 200 ppm,[1],≥ 80%
same,melting point,,184 to 187 °C
same,pest or weed control at 200 ppm,[2],≥ 80%
same,inhibition of growth at 20 ppm,[3],≥ 80%
same,pest or weed control at 200 ppm,[4],≥ 80%
"O=C(NNCCOC(F)F)c1ccc(-c2noc(C(F)(F)F)n2)cc1 [Compound 1.22, N′-[2-(difluoromethoxy)ethyl]-4-[5-(trifluoromethyl)-1,2,4-oxadiazol-3-yl]benzohydrazide]",pest or weed control at 200 ppm,[1],≥ 80%
same,pest or weed control at 200 ppm,[2],≥ 80%
same,inhibition of growth at 20 ppm,[3],≥ 80%
same,pest or weed control at 200 ppm,[4],≥ 80%
"O=C(NN1CCCCC1=O)c1ccc(-c2noc(C(F)(F)F)n2)cc1F [Compound 1.23, 2-fluoro-N-(2-oxo-1-piperidyl)-4-[5-(trifluoromethyl)-1,2,4-oxadiazol-3-yl]benzamide]",pest or weed control at 200 ppm,[1],≥ 80%
same,melting point,,120 to 136 °C
same,pest or weed control at 200 ppm,[2],≥ 80%
same,inhibition of growth at 20 ppm,[3],≥ 80%
same,pest or weed control at 200 ppm,[4],≥ 80%
"O=C(NN1CCCCC1=O)c1ccc(-c2noc(C(F)(F)F)n2)c(F)c1 [Compound 1.24, 3-fluoro-N-(2-oxo-1-piperidyl)-4-[5-(trifluoromethyl)-1,2,4-oxadiazol-3-yl]benzamide]",pest or weed control at 200 ppm,[1],≥ 80%
same,melting point,,180 to 200 °C
same,pest or weed control at 200 ppm,[2],≥ 80%
same,inhibition of growth at 20 ppm,[3],≥ 80%
same,pest or weed control at 200 ppm,[4],≥ 80%
"CN(C)NC(=O)Cc1ccc(-c2noc(C(F)(F)F)n2)cc1F [Compound 1.26, 2-[2-fluoro-4-[5-(trifluoromethyl)-1,2,4-oxadiazol-3-yl]phenyl]-N′,N′-dimethyl-acetohydrazide]",pest or weed control at 200 ppm,[1],≥ 80%
same,melting point,,156 to 158 °C
same,pest or weed control at 200 ppm,[2],≥ 80%
same,inhibition of growth at 20 ppm,[3],≥ 80%
same,pest or weed control at 200 ppm,[4],≥ 80%
"CN(C)NC(=O)Cc1ccc(-c2noc(C(F)(F)F)n2)cc1 [Compound 1.27, N′,N′-dimethyl-2-[4-[5-(trifluoromethyl)-1,2,4-oxadiazol-3-yl]phenyl]-acetohydrazide]",pest or weed control at 200 ppm,[1],≥ 80%
same,melting point,,180 to 182 °C
same,pest or weed control at 200 ppm,[2],≥ 80%
same,inhibition of growth at 20 ppm,[3],≥ 80%
same,pest or weed control at 200 ppm,[4],≥ 80%
